The target of test [1] is T1, human D2S dopamine (hD2S-DA) receptors (Homo sapiens, UniProt P14416).
T1 construct: purchased Receptor Biology, Inc. (Beltsville, Md.); host or cells: A9 L cells
As to the kind of experiment: Competition radioligand binding, hD2S dopamine. The following applies: [3H]Spiperone; membranes of A9 L cells; read-out: Ki D2.

Test [2] concerns the target T2, human 5-HT7B (h5-HT7b) receptors (Homo sapiens, UniProt P34969).
T2 construct: expressed in transfected cells
As to the kind of experiment: Competition radioligand binding, h5-HT7b. The following applies: [3H]5-CT; membranes of HEK 293 cells; read-out: Ki 5-HT7. The source says:
The compounds of the invention interact with 5-HT receptors and show selectivity for 5-HT receptors. The 5-HT receptor binding properties of the compounds are identified by competitive radioligand binding assays wherein membranes prepared from transfected cells expressing the 5-HT receptor subtype of interest. “Binding constants” refers herein to Ki values measured by inhibition of the binding of radiolabelled ligands that are selective for the 5-HT receptor type being studied. For 5-HT7 receptors, Ki values are determined by measuring the inhibition of 5-carboxamidotryptamine (5-CT) binding, wherein 5-HT7 receptors were incubated with the radiolabelled high affinity ligand, 5-carboxamidotryptamine ([^3H]5-CT), in the presence and absence of the compounds of the invention, at varying concentrations. The compounds of the invention have high binding affinity for serotonin receptors as measured by dissociation constant Ki. […] “Selectivity” for receptor type, in the context of this invention, refers to the ratio of binding constants for the two receptor types being compared. […] The compounds of the present invention preferably show selectivity for 5-HT7 receptors over other serotonin receptor subtypes of greater than about 100. The compounds of the present invention also preferably show selectivity for 5-HT7 receptors over other receptor types, such as dopamine D2, of greater than about 100.
(§1) Cells and Membrane Preparation: HEK 293 cells stably expressing human 5-HT7B (h5-HT7b) receptors were grown in Dulbecco's Modified Eagle's Medium (DMEM; Gibco) without sodium pyruvate and containing 4.5 g/L glucose, L-glutamine/penicillin-streptomycin (Gemini), 10% fetal bovine serum and 250 mg/l of the antibiotic, G418 (Geneticin) as previously described (Jasper, J. R., Kosaka, A., To, Z. P., Chang, D. J. and Eglen, R. M. (1997) Cloning, expression and pharmacology of a truncated splice variant of the human 5-ht7 receptor (h5-ht7b). Br. J. Pharmacol. 122(1):126-132.). Cell pellets were homogenized in approximately 50 mL of homogenization buffer (buffer A) containing: 50 mM Tris (pH 7.4), 2 mM EGTA, 0.32 M sucrose, 10 μM PMSF, 1 μg/mL leupeptin, 5 μg/mL Pepstatin A, and 5 μg/mL aprotinin using an UltraTurax homogenizer (Tekmar Company, Cincinnati, Ohio) at 80% maximum setting three times for 10 sec. Cell pellets were centrifuged at 4° C. at 1,500×g for 10 min in a Beckman GS-6R centrifuge. Pellets were resuspended in buffer A, homogenized and centrifuged as described above. Pooled supernatants were transferred to centrifuge bottles and centrifuged at 4° C. at 20,000×g for 30 min in a Beckman J2-HS centrifuge. Cell pellets were resuspended in buffer A and were centrifuged at 4° C. at 20,000×g for 30 min. Cell pellets were resuspended in buffer A and stored at −70° C. in aliquots of 2.5 mg/mL total membrane protein. Total membrane protein was assessed utilizing a BCA kit (Pierce; Rockford, Ill.). Membranes containing human 5-HT1a or 5HT2a receptors expressed in CHO K1 cells were prepared as described above.
Radioligand Binding Assays: For 5-HT7 saturation binding experiments, HEK-293 cell membranes expressing h5-HT7 receptors (5-10 μg membrane protein/well) were incubated in duplicate with [^3H]5-CT (approximately 0.2 nM) in binding assay buffer containing: 50 mM HEPES (pH 7.4), 0.5 mM EDTA, 10 mM MgCl2, 10 μM pargyline to inhibit monoamine oxidase activity, and 0.1% sodium ascorbate, in a final volume of 200 μL in 96-well polypropylene plates for 2 hours at 37° C. Nonspecific binding was determined by incubating membranes with 1 μM 5-HT. All radioligand binding assays were stopped by rapid filtration onto 96-well GF/C filter plates (Packard) soaked in 0.1% polyethylenimine. Filters were washed three times with ice-cold phosphate-buffered saline (PBS) wash buffer containing 50 mM NaPO4 (pH 7.4), 0.9% NaCl, 2 mM MgCl2 and 0.02% NaN3. The filters were then counted using liquid scintillation in a Packard Topcount scintillation counter. […]

The target of test [3] is T3, human 5-HT6 (h5-HT6) receptors (Homo sapiens, UniProt P50406).
T3 construct: purchased Receptor Biology, Inc. (Beltsville, Md.); host or cells: HEK-293 cells
As to the kind of experiment: Competition radioligand binding, h5-HT6. The following applies: [3H]LSD; membranes of HEK-293 cells; read-out: Ki 5-HT6.

A further test concerns the target T4, human 5HT2a receptors (Homo sapiens, UniProt P28223).
T4 construct: expressed in transfected cells; host or cells: CHO K1 cells
Kind of test: Competition radioligand binding, 5-HT2A. The following applies: [3H]Ketanserin; membranes of CHO K1 cells; read-out: Ki 5-HT2A. The procedure: as §1
Radioligand Binding Assays: For 5-HT7 saturation binding experiments, HEK-293 cell membranes expressing h5-HT7 receptors (5-10 μg membrane protein/well) were incubated in duplicate with [^3H]5-CT (approximately 0.2 nM) in binding assay buffer containing: 50 mM HEPES (pH 7.4), 0.5 mM EDTA, 10 mM MgCl2, 10 μM pargyline to inhibit monoamine oxidase activity, and 0.1% sodium ascorbate, in a final volume of 200 μL in 96-well polypropylene plates for 2 hours at 37° C. Nonspecific binding was determined by incubating membranes with 1 μM 5-HT. All radioligand binding assays were stopped by rapid filtration onto 96-well GF/C filter plates (Packard) soaked in 0.1% polyethylenimine. Filters were washed three times with ice-cold phosphate-buffered saline (PBS) wash buffer containing 50 mM NaPO4 (pH 7.4), 0.9% NaCl, 2 mM MgCl2 and 0.02% NaN3. The filters were then counted using liquid scintillation in a Packard Topcount scintillation counter.
Data Analysis: Radioligand binding experiments were analyzed with Prism™ (Graphpad, San Diego, Calif.), a computer graphics and statistics program. IC50 values and Hill slopes for compounds were generated by nonlinear regression using Prism™. Values for Ki calculated from IC50 values by the Cheng and Prussoff equation (Cheng, Y. and Prusoff, W. H., (1973), “Relationship between the inhibition constant (Ki) and the concentration of inhibitor which causes 50 per cent inhibition (I50) of an enzymatic reaction.” Biochemical Pharmacol. 22:3099-3108).

T4 sequence (P28223 whole entry): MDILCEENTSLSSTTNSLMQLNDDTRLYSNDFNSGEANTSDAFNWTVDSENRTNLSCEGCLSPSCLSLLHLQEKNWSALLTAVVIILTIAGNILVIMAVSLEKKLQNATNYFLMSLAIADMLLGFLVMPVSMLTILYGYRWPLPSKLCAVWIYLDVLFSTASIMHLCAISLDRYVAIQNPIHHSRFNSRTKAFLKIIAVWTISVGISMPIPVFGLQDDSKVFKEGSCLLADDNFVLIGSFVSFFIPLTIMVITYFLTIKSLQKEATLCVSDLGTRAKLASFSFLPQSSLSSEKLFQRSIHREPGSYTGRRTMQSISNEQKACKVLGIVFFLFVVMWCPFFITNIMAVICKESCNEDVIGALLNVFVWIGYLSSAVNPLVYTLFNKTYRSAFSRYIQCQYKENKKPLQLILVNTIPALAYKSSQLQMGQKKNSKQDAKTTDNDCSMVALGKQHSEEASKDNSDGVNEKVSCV
T2 sequence (P34969 1-432 limits assumed): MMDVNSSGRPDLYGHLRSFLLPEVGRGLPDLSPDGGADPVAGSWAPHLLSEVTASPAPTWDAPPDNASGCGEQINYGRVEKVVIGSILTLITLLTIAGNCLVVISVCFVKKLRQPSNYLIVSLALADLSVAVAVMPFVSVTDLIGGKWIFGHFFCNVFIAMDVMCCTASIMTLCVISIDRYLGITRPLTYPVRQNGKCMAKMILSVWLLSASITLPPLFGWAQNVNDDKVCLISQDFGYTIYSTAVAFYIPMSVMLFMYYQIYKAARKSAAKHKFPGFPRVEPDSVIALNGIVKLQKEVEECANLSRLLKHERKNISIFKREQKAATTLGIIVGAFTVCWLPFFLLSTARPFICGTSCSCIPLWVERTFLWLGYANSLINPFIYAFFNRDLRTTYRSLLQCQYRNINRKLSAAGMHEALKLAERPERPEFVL
T3 sequence (P50406 whole entry): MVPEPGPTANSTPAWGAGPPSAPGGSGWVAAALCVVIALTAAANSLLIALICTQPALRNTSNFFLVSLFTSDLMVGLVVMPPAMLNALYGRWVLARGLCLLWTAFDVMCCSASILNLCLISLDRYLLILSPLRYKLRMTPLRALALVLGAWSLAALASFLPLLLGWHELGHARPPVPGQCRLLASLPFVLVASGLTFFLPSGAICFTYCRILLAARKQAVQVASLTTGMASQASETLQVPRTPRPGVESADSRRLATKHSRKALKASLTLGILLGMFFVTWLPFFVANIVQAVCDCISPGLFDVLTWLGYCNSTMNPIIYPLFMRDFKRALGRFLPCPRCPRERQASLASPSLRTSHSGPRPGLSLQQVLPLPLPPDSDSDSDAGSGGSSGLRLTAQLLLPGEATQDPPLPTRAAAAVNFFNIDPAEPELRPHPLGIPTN
T1 sequence (P14416 1-414 isoform P14416-2): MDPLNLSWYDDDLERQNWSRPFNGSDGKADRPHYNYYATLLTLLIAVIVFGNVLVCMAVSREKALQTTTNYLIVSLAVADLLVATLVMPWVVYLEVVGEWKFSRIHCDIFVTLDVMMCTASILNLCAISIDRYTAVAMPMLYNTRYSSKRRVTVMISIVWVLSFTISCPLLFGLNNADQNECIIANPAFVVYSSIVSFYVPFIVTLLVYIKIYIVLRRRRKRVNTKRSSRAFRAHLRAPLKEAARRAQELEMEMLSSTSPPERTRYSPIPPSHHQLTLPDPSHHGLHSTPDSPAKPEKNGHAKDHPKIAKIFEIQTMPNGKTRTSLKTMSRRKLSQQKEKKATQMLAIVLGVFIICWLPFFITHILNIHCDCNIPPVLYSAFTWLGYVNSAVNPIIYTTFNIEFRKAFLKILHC

In the case of `COCCCNC(=O)NC(=N)NCc1cccc2ccccc12` [Example 38, 1-(3-Imino-5-oxo-10-oxa-2,4,6-triazaundec-1-yl)naphthalene], the inhibitory constant (Ki) in test [1] was above 2500 nM; in test [2], 14 nM; in test [3], 1180 nM.
The matching figures for `N=C(NCc1cccc2ccccc12)NC(=O)NCCc1c[nH]c2ccc(Cl)cc12` [Example 39, 5-Chloro-3-(2-{[({imino[(1-naphthylmethyl)amino]methyl}amino)carbonyl]amino}ethyl)-1H-indole]: 400 nM, 120 nM and 1180 nM.
The matching figures for `N=C(NCc1cccc2ccccc12)NC(=O)N[C@H]1c2ccccc2C[C@H]1O` [Example 42, 1-({[[({[(1S,2R)-2-Hydroxy-2,3-dihydro-1H-inden-1-yl]amino}carbonyl)amino](imino)methyl]amino}methyl)naphthalene]: 1250 nM, 22 nM and 1740 nM.
Turning to `N=C(NCc1cccc2ccccc12)NC(=O)NCc1c(N)cccc1F` [Example 44, 1-({[({[(2-Amino-6-fluorobenzyl)amino]carbonyl}amino)(imino)methyl]amino}methyl)naphthalene], the Ki in test [1] was determined as 890 nM; in test [2] it was 33 nM; in test [3], 500 nM.
For `N=C(NCc1cccc2ccccc12)NC(=O)NCCSCc1c(F)cccc1Cl` [Example 47, 1-[10-(2-Chloro-6-fluorophenyl)-3-imino-5-oxo-9-thia-2,4,6-triazadec-1-yl]naphthalene], in that order: 860 nM, 120 nM and 530 nM.
For `CC(C)(CO)CNC(=O)NC(=N)NCc1cccc2ccccc12` [Example 48, 1-({[({[(3-Hydroxy-2,2-dimethylpropyl)amino]carbonyl}amino)(imino)methyl]amino}methyl)naphthalene], in that order: 1700 nM, 9.8 nM and 2620 nM.
For `COc1cc(CNC(=O)NC(=N)NCc2cccc3ccccc23)cc(OC)c1OC` [Example 49, 1-({[Imino({[(3,4,5-trimethoxybenzyl)amino]carbonyl}amino)methyl]amino}methyl)naphthalene], in that order: 830 nM, 30 nM and 1130 nM.
As to `N=C(NCc1cccc2ccccc12)NC(=O)NCC1CCN(Cc2cccc(C(F)(F)F)c2)CC1` [Example 57, 4-({[({Imino[(1-naphthylmethyl)amino]methyl}amino)carbonyl]amino}methyl)-1-[3-(trifluoromethyl)benzyl]piperidine], the inhibition constant Ki worked out at 1570 nM in test [1], 59 nM in test [2] and 130 nM at human 5HT2a receptors.
The matching figures for `N#Cc1ccc(CN2CCC(CNC(=O)NC(=N)NCc3cccc4ccccc34)CC2)cc1` [Example 59, 1-(4-Cyanobenzyl)-4-({[({imino[(1-naphthylmethyl)amino]methyl}amino)carbonyl]amino}methyl)piperidine]: above 2500 nM, 85 nM and 2.6 nM.
On to `Cc1cc(C)cc(CN2CCC(CNC(=O)NC(=N)NCc3cccc4ccccc34)CC2)c1` [Example 62, 1-(3,5-Dimethylbenzyl)4-({[({imino[(1-naphthylmethyl)amino]methyl}amino)carbonyl]amino}methyl)piperidine], for which the Ki turned out to be 490 nM in test [1], 22 nM in test [2] and 9.8 nM at human 5HT2a receptors.
For `N=C(NCc1cccc2ccccc12)NC(=O)NCC1CCN(Cc2noc(-c3ccccc3)n2)CC1` [Example 64, 4-({[({Imino[(1-naphthylmethyl)amino]methyl}amino)carbonyl]amino}methyl)-1-[(5-phenyl-1,2,4-oxadiazol-3-yl)methyl]piperidine], in that order: above 2500 nM, 91 nM and 4.2 nM.

These data come from patent US20040044037A1, “Amidino-urea serotonin receptor ligands and compositions, their pharmaceutical uses, and methods for their snythesis” (priority 2003, published 2004).
